The results in this text go back to patent US7923465B2, “Cannabinoid receptor ligands, pharmaceutical compositions containing them, and process for their preparation” (priority 2005, dated 2011).

Structures are written as SMILES. Read-outs that look alike come from different tables or passages of the source.

Data set [1] has as its target T1, CB1 (Rattus norvegicus, UniProt P20272). In words: Rat CB1 receptor binding using brain membrane, [3H]SR141716A displacement (Protocol I). Particulars: for inhibition: 1 h. More on the design: CB1 receptor present in a rat brain membrane preparation; from tissue; host or cells: rat brain membrane; inhibition: dose or concentration left out as unconfirmed.
The target in data set [2] is T1, CB1. In words: GTPγS binding assay, CB1 functional assay in rat cerebellar membrane (Protocol VIII). In kind it is biochemical. More on the design: 10 μg rat cerebellum membrane; from tissue; host or cells: rat cerebellum membrane, prepared in-house. Conditions: for Per Se % Stimulation / activation at 1 µM: tested at 1 uM; for % Inhibition of WIN-55212-2 induced stimulation / inhibition at 1 µM: tested at 1 uM in presence of 1 μM WIN 55,212-2. As for the experimental part: VIII. Protocol for GTPγS Binding Assay (CB1 Functional Assay in Rat Cerebellar Membrane)
In this GTPγS binding assay, total, basal and nonspecific binding were determined. See Griffin G., Atkinson P. J., Showalter V. M., Martin B. R. and Abood M. E., “Evaluation of cannabinoid receptor agonists and antagonists using the Guanosine-5′-O-(3-(^35S)thio)-triphosphate binding assay in rat cerebellar membranes,” J Pharmacol Exp Ther 285: 553-560, 1998. Three wells for total binding, three wells for basal binding, and three wells for nonspecific binding at 0.2 nM concentration of radioligand were used. Basal binding was defined by 50 μM GDP (Guanosine diphosphate) and non-specific binding was defined by 10 μM unlabeled GTPγS. 10 μg rat cerebellum membrane, 50 μM of GDP, WIN-55212-2 or test compound (1 μM or 300 nM), 10 μM unlabeled GTPγs, and 0.2 nM of [^35S]GTPγS were added into a 96 well plate and the final volume of the reaction mixture was made with GTPγS buffer (50 mM Tris, 3 mM anhydrous MgCl2, 0.2 mM EGTA and 100 mM NaCl pH 7.4) to 200 μl. The plates were incubated at 30° C. for 1 hour. Then the reaction was stopped by filtration using a Whatman GF/B-96 microfilter plate. Three washings were given using Tris-HCl. The radioactivity bound to the brain membrane was retained on the filter disks to which scintillation fluid was added (Microscint PS). Then plates were read for radioactive counts using a Beta Liquid Scintillation Counter (Packard Instruments, Ill., USA).
The rat cerebellar brain membrane was prepared as follow: • 1. Sacrifice the rat and take out the whole brain and separate cerebellum as fast as possible and keep it on ice. • 2. Take the weight of the cerebellum and homogenize in 30 ml of homogenizing buffer (50 mM Tris-HCL containing 1 mM EDTA and 5% sucrose, pH 7.5) using homogenizer in cold condition. • 3. Centrifuge the homogenized cerebellum at 18000 rpm (38000 g) for 15 min at 4° C. • 4. Resuspend the pellet in 5 ml 50 mM Tris-HCL containing 1 mM EDTA and keep it on ice for 30 min. • 5. Pass the membrane through insulin syringe to ensure uniform suspension. • 6. Centrifuge the membrane at 18000 rpm at 4° C. for 20 min. • 7. Reconstitute the pellet in 3 ml of GTPγS buffer and estimate the protein by BCA assay and store the membrane in aliquots of 1000 μg of protein. CB1 Agonist and Antagonist Activity Screening Assay
The test compounds were screened at a final concentration of 1 μM or 300 nM in the absence and presence of 1 μM of WIN 55, 212-2 in the same manner as described in the GTPγS binding assay.
An agonist will stimulate the GTPγS binding over the basal.
An inverse agonist will decrease the basal GTPγS binding and/or produce more than 100% inhibition of the agonist (WIN-55212-2) induced stimulation.
The percent stimulation of GTPγS binding by each test compound at 1 μM or 300 nM concentration in the absence and presence of 1 μM WIN 55, 212-2 was calculated by comparing it with basal specific bound (Basal binding—Non Specific binding) values.
In general terms: GTPγS is a poorly hydrolysed GTP analogue; its binding reports G protein activation.

The target of the next data set is hCB2 (Homo sapiens, UniProt P34972). The data set can be described thus: In vitro binding assay using hCB2-CHO membranes, [3H]-CP-55,940 displacement (Protocol IV). Set-up: expressed in transfected cells; host or cells: CHO (hCB2-CHO, generated in-house). Conditions: 1 h; hCB2-CHO membranes, [3H]-CP-55,940 displacement; read-out: % Displacement Protocol IV. Summed up: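 Compounds were tested at a single 300 nM final concentration for displacing 0.75 nM [3H]-CP-55,940 from hCB2-CHO membranes (1 h, 30 °C, 50 mM Tris pH 7.4, 5 mM MgCl2, 1 mM EDTA, 0.1% BSA). Filter-bound radioactivity was counted, with 0.5 μM unlabelled CP-55,940 for nonspecific binding; results are % displacement.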
hCB2, sequence (P34972 whole entry): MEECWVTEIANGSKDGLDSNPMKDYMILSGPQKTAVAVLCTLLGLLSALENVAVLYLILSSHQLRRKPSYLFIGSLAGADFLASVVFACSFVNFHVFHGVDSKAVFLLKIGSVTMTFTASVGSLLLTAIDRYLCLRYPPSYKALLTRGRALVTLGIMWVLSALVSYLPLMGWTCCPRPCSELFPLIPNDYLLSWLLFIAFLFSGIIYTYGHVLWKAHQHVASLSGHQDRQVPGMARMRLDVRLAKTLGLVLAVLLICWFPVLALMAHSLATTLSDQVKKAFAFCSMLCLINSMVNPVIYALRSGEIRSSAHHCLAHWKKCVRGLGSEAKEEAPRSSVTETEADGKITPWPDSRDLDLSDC

Setting [3] is: rat brain membrane, [3H]SR141716A displacement.
Where [4] appears, read: GTPγS binding over basal, rat cerebellar membrane.
Setting [5] is: rat brain membrane, [3H]SR141716A displacement, read-out: % Displacement Protocol I.
Where [6] appears, read: 1 h, GTPγS binding over basal, rat cerebellar membrane, read-out: Per Se % Stimulation.
Where [7] appears, read: GTPγS binding, read-out: % Inhibition of WIN-55212-2 induced stimulation.

T1 sequence (P20272 whole entry): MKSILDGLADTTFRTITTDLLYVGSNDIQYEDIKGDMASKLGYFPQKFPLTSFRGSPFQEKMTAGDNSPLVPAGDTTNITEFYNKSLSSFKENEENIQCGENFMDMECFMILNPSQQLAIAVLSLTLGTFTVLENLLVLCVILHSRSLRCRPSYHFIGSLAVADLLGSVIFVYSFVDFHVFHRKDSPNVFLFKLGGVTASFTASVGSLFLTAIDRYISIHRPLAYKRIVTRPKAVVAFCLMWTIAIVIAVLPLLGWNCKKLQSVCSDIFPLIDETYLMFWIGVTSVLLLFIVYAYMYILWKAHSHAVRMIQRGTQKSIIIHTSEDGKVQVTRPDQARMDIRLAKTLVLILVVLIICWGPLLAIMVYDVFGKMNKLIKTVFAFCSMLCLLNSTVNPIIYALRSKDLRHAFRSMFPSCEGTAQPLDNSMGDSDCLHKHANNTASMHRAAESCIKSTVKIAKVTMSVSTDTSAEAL

`O=C(NCc1ccccc1)c1nn(-c2ccc(Cl)cc2)c2c1C1CC3CC(C1)CC2C3` [Example 139, N(7)-Benzyl-5-(4′-chlorophenyl)-5,6-diazatetracyclo[7.3.1.1^3,11.0^4,8]tetradeca-4(8)-6-diene-7-carboxamide]: the “% Displacement Protocol I” value at CB1 [1] (setting [3]) is on record as 62.4%. The “Per Se % Stimulation” value at CB1 [2] (setting [4]) was −8.5%. On CB1 [2] (GTPγS binding), the “% Inhibition of WIN-55212-2 induced stimulation” value (“% Inhibition” below) was 109.1%.

`O=C(NN1CCCCC1)c1nn(-c2ccc(Cl)cc2Cl)c2c1C1CC3CC(C1)CC2C3` [Example 180, N(7)-piperidino-5-(2′,4′-dichlorophenyl)-5,6-diazatetracyclo[7.3.1.1^3,11.0^4,8]tetradeca-4(8),6-diene-7-carboxamide]: the inhibition at 0.3 µM at hCB2 was 13.2%. Further, on CB1 [1] (setting [5]), the inhibition amounted to 40.6%. The activation at 1 µM on CB1 [2] (setting [6]) came out at 10%. On CB1 [2] (setting [7]), the inhibition at 1 µM was found to be 87.9%.

On to `Cl.O=C(NN1CCCCC1)c1nn(-c2ccc(Cl)cc2Cl)c2c1C1CCC2c2ccccc21` (stereo not shown) [Example 503, N(12)-Piperidino-10-(2,4-dichlorophenyl)-10,11-diazatetracyclo[6.5.2.0^2,7.0^9,13]pentadeca-2,4,6,9(13),11-pentaene-12-carboxamide hydrochloride], for which, on CB1 [1] (read-out: % Displacement Protocol I, rat brain membrane, [3H]SR141716A displacement), the inhibition came out at 81.2%. For the same compound, the “Per Se % Stimulation” value at CB1 [2] (setting [4]) is listed as 1.5%. Moreover, the “% Inhibition” value on CB1 [2] (GTPγS binding) is given as 92.0%.

For the compound `O=C(NNc1ccc(Cl)cc1Cl)c1n[nH]c2c1C1(c3ccc(Cl)cc3)CCC2C1` (stereo not shown) [Example 230, N(3)-[(2,4-Dichlorophenyl)amino]-4-(4-chlorophenyl)-4,5,6,7-tetrahydro-1H-4,7-methano-indazole-3-carboxamide], at CB1 [1] (setting [5]), the inhibition turned out to be 87.2%. Besides, the activation at 1 µM on CB1 [2] (setting [6]) amounted to 42.4%. Also, the inhibition at 1 µM at CB1 [2] (setting [7]) is 99.4%.

As to `O=C(NC12CC3CC(CC(C3)C1)C2)c1nn(-c2ccc(Cl)cc2Cl)c2c1C1CCC2C1` (stereo not shown) [Example 242, N(3)-(Adamantan-1yl)-1-(2,4-dichlorophenyl)-4,5,6,7-tetrahydro-1H-4,7-methano-indazole-3-carboxamide], the melting point (as a rule, the temperature, or range, at which the solid turns liquid) was 201 to 204 °C. Moreover, on CB1 [2] (1 h, GTPγS binding over basal, rat cerebellar membrane, tested at 300 nM, read-out: Per Se % Stimulation), the activation at 0.3 µM is 33.4%. For the same compound, the inhibition at 0.3 µM on CB1 [2] (GTPγS binding, tested at 300 nM in presence of 1 μM WIN 55,212-2, read-out: % Inhibition of WIN-55212-2 induced stimulation) was 22.9%.

With `O=C(NC1CCCCC1)c1nn(-c2ccc(Cl)cc2Cl)c2c1C1CCC2C1` (stereo not shown) [Example 237, N(3)-Cyclohexyl-1-(2,4-dichlorophenyl)-4,5,6,7-tetrahydro-1H-4,7-methano-indazole-3-carboxamide], on CB1 [1] (setting [5]), the inhibition stood at 65.6%. The activation at 1 µM on CB1 [2] (setting [6]) was found to be 7.1%. At CB1 [2] (setting [7]), the inhibition at 1 µM came out at 74.7%.

For the compound `O=C(NNc1ccccc1F)c1nn(-c2ccc(Cl)cc2Cl)c2c1C1CCC2C1` (stereo not shown) [Example 264, N(3)-[(2-Fluorophenyl)amino]-1-(2,4-dichlorophenyl)-4,5,6,7-tetrahydro-1H-4,7-methano-indazole-3-carboxamide], at CB1 [1] (setting [5]), the inhibition is 85.6%. For the same compound, at CB1 [2] (setting [6]), the activation at 1 µM was -0.1%. In addition, on CB1 [2] (setting [7]), the inhibition at 1 µM is 94.5%.

Consider `CN(NC(=O)c1nn(-c2ccc(Cl)cc2)c2c1C1CC3CC(C1)CC2C3)c1ccc(Cl)cc1Cl` [Example 127], for which the “% Displacement Protocol I” value on CB1 [1] (setting [3]) was determined as 85.3%. Moreover, at CB1 [2] (setting [4]), the “Per Se % Stimulation” value amounted to 18.0%. The “% Inhibition” value on CB1 [2] (GTPγS binding) is 100.2%.

Consider `O=C(NCc1ccccc1)c1nn(-c2ccc(Cl)cc2Cl)c2c1C1CCC2C1` (stereo not shown) [Example 269, N(5)-benzyl-3-(2′,4′-dichlorophenyl)-3,4-diazatricyclo[5.2.1.0^2,6]deca-2(6),4-diene-5-carboxamide], for which the inhibition at CB1 [1] (setting [5]) came to 47.7%. Further, the activation at 1 µM at CB1 [2] (setting [6]) amounted to 6%. Further, the inhibition at 1 µM at CB1 [2] (setting [7]) stood at 91.4%.

Consider `O=C(NNc1ccc(Cl)cc1)c1n[nH]c2c1C1(c3ccc(Cl)cc3)CCC2C1` (stereo not shown) [Example 229, N(3)-[(4-Chlorophenyl)amino]-4-(4-chlorophenyl)-4,5,6,7-tetrahydro-1H-4,7-methano-indazole-3-carboxamide], for which the melting point lay in the range of 202 to 205 °C. The inhibition at 0.3 µM at hCB2 worked out at 24.6%. Further, the inhibition on CB1 [1] (setting [5]) is 47.1%.

Compound `O=C(NCc1ccccc1)c1nn(-c2ccccc2Br)c2c1C1CCC2C1` (stereo not shown) [Example 272, N(3)-Benzyl-1-(2-bromophenyl)-4,5,6,7-tetrahydro-1H-4,7-methano-indazole-3-carboxamide] displayed a melting point of 110 °C. The inhibition at 0.3 µM on hCB2 was determined as 18.4%. Also, the inhibition on CB1 [1] (setting [5]) was -4.5%.

`O=C(NNc1ccc(Cl)cn1)c1nn(-c2ccc(Cl)cc2)c2c1C1CC3CC(C1)CC2C3` [Example 135, N(7)-(5-Chloro-2-pyridylamino)-5-(4-chlorophenyl)-5,6-diazatetracyclo[7.3.1.1^3,11.0^4,8]tetradeca-4(8),6-diene-7-carboxamide] had a melting point of 130 to 135 °C. The inhibition at 0.3 µM at hCB2 turned out to be 6.48%. Besides, at CB1 [1] (setting [5]), the inhibition stood at 20.5%.

In turn, `COc1ccc(-n2nc(C(=O)NCc3ccccc3Cl)c3c2C2CC4CC(CC3C4)C2)cc1` [Example 164, N7-(2-Chlorobenzyl)-5-(4-methoxyphenyl)-5,6-diazatetracyclo[7.3.1.1^3,11.0^4,8]tetradeca-4(8),6-diene-7-carboxamide] showed a melting point of 178 °C. The inhibition at 0.3 µM at hCB2 came out at 13.2%. Further, on CB1 [1] (setting [5]), the inhibition was determined as 8.2%.

In the case of `O=C(NNc1ccc(Cl)cc1Cl)c1nn(-c2ccc(Cl)cc2Cl)c2c1C1CC3CC(C1)CC2C3` [Example 175, N(7)-(2,4-Dichlorophenylamino)-5-(2,4-dichlorophenyl)-5,6-diazatetracyclo[7.3.1.1^3,11.0^4,8]tetradeca-4(8),6-diene-7-carboxamide], the melting point lay in the range of 153 to 156 °C. The inhibition at 0.3 µM at hCB2 came to 18.5%. Moreover, the inhibition on CB1 [1] (setting [5]) was found to be 66%.

`O=C(NNc1ccc(Cl)cc1Cl)c1nn(-c2ccc(Cl)cc2)c2c1C1CC3CC(C1)CC2C3` [Example 126, N(7)-(2,4-Dichlorophenylamino)-5-(4-chlorophenyl)-5,6-diazatetracyclo[7.3.1.1^3,11.0^4,8]tetradeca-4(8),6-diene-7-carboxamide]: the inhibition on CB1 [1] (setting [5]) stood at 118%. At CB1 [2] (setting [6]), the activation at 1 µM is -7.9%. The inhibition at 1 µM on CB1 [2] (setting [7]) was determined as 104%.
